Where a name gives a salt, the structure may show the parent alone.
Molecular target: T1, PI3Kα H1047R (T47D cells) (Homo sapiens, UniProt P42336, H1047R)
T1 construct: endogenous in cells; host or cells: T47D cells
Assay: PI3Kα cellular assay: pAKT HTRF in T47D cells after EGF stimulation
Assay type: cell-based
Conditions: for IC50: T47D cells (PI3Kα H1047R), pAKT S473 HTRF
In short: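 T47D cells (PIK3CA H1047R) serum-starved 16 h, then treated 1 h at 37 °C with compound (10,000 nM top, 3-fold steps to 0.5 nM). After 10 min stimulation with 20 ng/mL EGF, cells were lysed and pAKT measured by HTRF.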

[1] = selectivity of T47D (H1047R) over SKBR3 (WT) pAKT IC50
[2] = 1 hr compound, 20 ng/ml EGF 10 min
[3] = selectivity T47D (H1047R) over SKBR3 (WT), pAKT HTRF

T1 sequence (P42336 whole entry H1047R): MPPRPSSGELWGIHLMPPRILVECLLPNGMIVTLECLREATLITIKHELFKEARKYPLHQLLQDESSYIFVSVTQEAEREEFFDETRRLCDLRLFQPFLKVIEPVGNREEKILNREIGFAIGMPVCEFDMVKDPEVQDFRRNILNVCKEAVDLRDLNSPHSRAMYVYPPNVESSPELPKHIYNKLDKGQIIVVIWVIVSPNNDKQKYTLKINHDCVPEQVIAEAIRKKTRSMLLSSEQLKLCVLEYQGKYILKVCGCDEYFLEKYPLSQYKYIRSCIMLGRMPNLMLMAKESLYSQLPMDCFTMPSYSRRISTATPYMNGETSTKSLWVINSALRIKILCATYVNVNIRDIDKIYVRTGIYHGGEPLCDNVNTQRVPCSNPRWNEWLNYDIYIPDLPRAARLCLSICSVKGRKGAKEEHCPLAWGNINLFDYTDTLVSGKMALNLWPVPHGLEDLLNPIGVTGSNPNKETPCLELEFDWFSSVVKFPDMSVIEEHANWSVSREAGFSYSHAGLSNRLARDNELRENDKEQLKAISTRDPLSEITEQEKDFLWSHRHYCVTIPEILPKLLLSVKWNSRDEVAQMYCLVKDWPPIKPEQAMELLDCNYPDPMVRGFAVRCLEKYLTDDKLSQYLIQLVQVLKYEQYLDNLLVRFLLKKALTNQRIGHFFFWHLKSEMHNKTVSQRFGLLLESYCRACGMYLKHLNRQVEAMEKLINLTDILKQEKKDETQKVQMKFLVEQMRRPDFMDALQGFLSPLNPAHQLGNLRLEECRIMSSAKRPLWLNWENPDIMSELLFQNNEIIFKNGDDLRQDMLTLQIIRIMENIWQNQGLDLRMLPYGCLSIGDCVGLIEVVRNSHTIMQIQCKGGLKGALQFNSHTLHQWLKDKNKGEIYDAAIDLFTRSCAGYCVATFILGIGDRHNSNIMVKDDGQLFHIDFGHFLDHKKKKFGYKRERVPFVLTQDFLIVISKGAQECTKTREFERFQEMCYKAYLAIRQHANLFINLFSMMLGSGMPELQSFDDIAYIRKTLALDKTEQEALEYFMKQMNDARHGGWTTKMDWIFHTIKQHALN
T1 sequence (P27986 whole entry partner): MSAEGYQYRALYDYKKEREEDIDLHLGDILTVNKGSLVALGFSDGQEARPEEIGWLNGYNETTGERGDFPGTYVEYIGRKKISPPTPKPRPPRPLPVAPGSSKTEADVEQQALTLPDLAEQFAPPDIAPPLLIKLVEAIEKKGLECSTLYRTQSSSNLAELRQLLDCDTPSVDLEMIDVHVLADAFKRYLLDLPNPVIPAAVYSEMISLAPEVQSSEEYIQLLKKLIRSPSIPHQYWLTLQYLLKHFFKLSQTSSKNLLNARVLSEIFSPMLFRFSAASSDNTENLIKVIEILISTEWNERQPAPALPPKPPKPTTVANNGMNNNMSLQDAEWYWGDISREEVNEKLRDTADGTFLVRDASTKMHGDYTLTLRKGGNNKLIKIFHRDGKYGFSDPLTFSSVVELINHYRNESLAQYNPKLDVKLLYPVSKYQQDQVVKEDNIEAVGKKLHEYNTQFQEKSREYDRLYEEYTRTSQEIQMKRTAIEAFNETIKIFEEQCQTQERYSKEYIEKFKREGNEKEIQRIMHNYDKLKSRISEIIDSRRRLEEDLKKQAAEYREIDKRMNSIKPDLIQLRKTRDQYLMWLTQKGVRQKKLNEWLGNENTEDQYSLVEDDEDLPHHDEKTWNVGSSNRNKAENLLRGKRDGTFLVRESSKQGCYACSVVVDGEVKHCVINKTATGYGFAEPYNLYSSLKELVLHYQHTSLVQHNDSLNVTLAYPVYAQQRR

Structure (SMILES) | IC50 (EGF stimulation) [nM] | T47D pAKT S473 HTRF IC50 (H1047R): T47D (H1047R) selectivity over SKBR3 (WT) [1] | IC50 [2] [nM] | T47D pAKT S473 HTRF IC50 (H1047R): T47D (H1047R) selectivity over SKBR3 (WT) [3]
CC(=O)Nc1nn(C)c2ccc(-c3cc(=O)n4cc(C)cc(C(C)Nc5ccccc5C(=O)O)c4n3)cc12 (stereo not shown) [Compound 792] | > 2000 | C (C denotes ≤5-fold) | – | –
Cc1cc([C@@H](C)Nc2ccccc2S(N)(=O)=O)c2nc(N3Cc4ccccc4C3)cc(=O)n2c1 [Compound 605, (R)-2-((1-(2-(isoindolin-2-yl)-7-methyl-4-oxo-4H-pyrido[1,2-a]pyrimidin-9-yl)ethyl)amino)benzenesulfonamide] | – | – | < 100 | A (A denotes >20-fold)
Cc1cc([C@@H](C)Nc2c(C)cccc2C(=O)O)c2nc(N3CCOCC3)cc(=O)n2c1 [Compound 335] | – | – | > 2000 | C (C denotes ≤5-fold)
Cc1cc(C(C)Nc2ccccc2C(=O)O)c2nc(C3CCN(C(=O)C4(N)CC4)CC3)cc(=O)n2c1 (stereo not shown) [Compound 524] | – | – | > 2000 | C (C denotes ≤5-fold)
Cc1cc([C@@H](C)Nc2ccccc2C(N)=O)c2nc(N3Cc4ccccc4C3)cc(=O)n2c1 (single isomer, unassigned) [Compound 620] | – | – | < 100 | A (A denotes >20-fold)
C=C(C)C1CCCC(c2cc(=O)n3cc(C)cc([C@@H](C)Nc4ccccc4C(=O)O)c3n2)CC1 (stereo partly shown) [Compound 552] | – | – | – | C (C denotes ≤5-fold)
Cc1cc(C(C)Nc2ccccc2S(N)(=O)=O)c2nc(-c3ccc(F)cc3)cc(=O)n2c1 (stereo not shown) [Compound 585] | – | – | > 2000 | C (C denotes ≤5-fold)
Cc1cc([C@@H](C)Nc2ccccc2C(=O)O)c2nc(-c3cccc(F)c3)c(C(C)C)c(=O)n2c1 [Compound 1277] | 100 to 500 | – | – | A (A denotes >20-fold)
Cc1cc([C@H](C)Nc2ccccc2C(=O)O)c2nc(C3CCOCC3)c(C)c(=O)n2c1 [Compound 1056] | > 2000 | C (C denotes ≤5-fold) | – | –
Cc1cc([C@@H](C)Nc2ccccc2S(N)(=O)=O)c2nc(N3C[C@@H](C)O[C@@H](C)C3)cc(=O)n2c1 (single isomer, unassigned) [Compound 730] | < 100 | A (A denotes >20-fold) | – | –
Cc1cc(C(C)Nc2ccccc2C(N)=O)c2nc(-c3ccc(F)c(C#N)c3)c(C)c(=O)n2c1 (stereo not shown) [Compound 1092] | 100 to 500 | – | – | A (A denotes >20-fold)
Cc1cc(C(C)Nc2ccccc2C(=O)O)c2nc(-c3cccnc3)cc(=O)n2c1 (stereo not shown) [Compound 416, 2-((1-(7-methyl-4-oxo-2-(pyridin-3-yl)-4H-pyrido[1,2-a]pyrimidin-9-yl)ethyl)amino)benzoic acid trifluoroacetate] | – | – | 100 to 500 | A (A denotes >20-fold)
Cc1cc(C(C)Nc2ccccc2C(=O)O)c2nc(-c3ccc(CN4CCN(C)CC4)cc3)cc(=O)n2c1 (stereo not shown) [Compound 308] | – | – | > 2000 | C (C denotes ≤5-fold)
Cc1cc([C@@H](C)Nc2ccccc2C(=O)O)c2nc(-c3cccc(C#N)c3)c(C)c(=O)n2c1 (single isomer, unassigned) [Compound 967] | < 100 | A (A denotes >20-fold) | – | –
Cc1cc([C@H](C)Nc2ccccc2C(=O)O)c2nc(-c3ccc(C(=O)N(C)C)cc3)cc(=O)n2c1 [Compound 659] | > 2000 | C (C denotes ≤5-fold) | – | –
CC(=O)N1CCC(c2cc(=O)n3cc(C)cc(C(C)Nc4ccccc4C(=O)O)c3n2)CC1 (stereo not shown) [Compound 508] | – | – | > 2000 | C (C denotes ≤5-fold)
Cc1cc([C@H](C)Nc2ccccc2C(=O)O)c2nc(-c3ccc(CC4CCN(C(=O)C5CC5)CC4)c(F)c3)c(C)c(=O)n2c1 [Compound 1075] | > 2000 | – | – | C (C denotes ≤5-fold)
Cc1cc([C@H](C)Nc2ccccc2-c2ccnnc2)c2cc([C@H]3CCCOC3)c(C)c(=O)n2c1 [Compound 1406] | – | – | – | A (A denotes >20-fold)
Cc1cc([C@@H](C)Nc2c(C(=O)O)cnn2C)c2nc(N3CCOCC3)cc(=O)n2c1 [Compound 390] | – | – | > 2000 | C (C denotes ≤5-fold)
Cc1cc(C(C)Nc2ccccc2S(N)(=O)=O)c2nc(-c3cccnc3)c(C3CC3)c(=O)n2c1 (stereo not shown) [Compound 1261] | 100 to 500 | – | – | A (A denotes >20-fold)
Cc1cc([C@H](C)Nc2ccccc2C(=O)O)c2nc(-c3c(C)ccc4[nH]ncc34)cc(=O)n2c1 [Compound 814] | > 2000 | C (C denotes ≤5-fold) | – | –

Reference: patent publication US20260132129A1 (Genesis Therapeutics, Inc., priority 2022, published 2026)
